Where “and” joins values, the source holds several entries; their conditions need not be identical. Equal values may be shown once.
Key:
SK-MEL-2 (NRAS mut) = experiment: Cell proliferation MTT assay; assay type: cell-based; conditions: Homo sapiens, SK-MEL-2, 72 h
Description: (§1) The synergism and antagonism (CI value) were determined and analyzed using CompuSyn 1.0.
(§2) For cytotoxicity test, normal NHDF (5000 cells/well) and NHEM cell line (3000 cells/well) were planted into 96-well plates. For cell proliferation assay, A375 (1500 cells/well), SK-MEL-28 (3000 cells/well), SK-MEL-2 (4000 cells/well), and HCT116 (1500 cells/well) were planted into 96-well plates, determined concentration of drug was added after culture for 24 h. The viability of the cells was detected within 72 h using MTT solution (5 mg/mL). The absorbance at 570/490 nm was quantified by the use of the microplate reader.

SK-MEL-28 (BRAF V600E) = experiment: Cell proliferation MTT assay; assay type: cell-based; conditions: Homo sapiens, SK-MEL-28, 72 h
Description: as §1, §2

A375 (BRAF V600E) CDX = experiment: Cell-derived xenograft (CDX); conditions: 50 mg/kg, oral gavage
Description: (§3) Tumor volume (mm^3) = (length × width × height) × 0.52. SK-MEL-2: n = 10; A375 and SK-MEL-28: n = 8; HCT116: n = 9. b The photographs show tumors from CDX mice treated with vehicle, erianin, vemurafenib, or the combination. c The weight of the tumors was quantified and expressed as the treatment groups compared with the vehicle-treated group. […] The tissue lysates were prepared from CDX tumor tissues in each treatment group. […] Each point represents the IOD values of four quantified data from one mouse. Scale bars: 50 μm.
(§4) The animal experiments were performed according to the guidelines approved by the Zhengzhou University Institutional Animal Care and Use Committee. A375 cell line (1 × 10^7 cell/mouse), SK-MEL-28 cell line (5 × 10^6 cell/mouse), SK-MEL-2 cell (5 × 10^6 cell/mouse), and HCT116 cell line (1 × 10^7 cell/mouse) were injected subcutaneously into the NOD-SCID mice (Vital River Labs, Beijing, China). For the melanoma PDX mice model, the tumor was taken after surgical operation and implanted into the NPG (Vital River Labs, Beijing, China) mice under a sterile environment. For the colorectal cancer PDX mice model, NOD-SCID mice were selected as carriers for tumor growth. The measurement of tumor size was performed twice a week using vernier caliper and the calculation of tumor volume was done according to tumor volume (mm^3) = length × width × height × 0.52.

[1] = tested on: SK-MEL-28 (BRAF V600E) CDX; experiment: Cell-derived xenograft (CDX); conditions: 50 mg/kg, oral gavage
Description: as §3, §4

BRAF = target: T1, BRAF (Homo sapiens, UniProt P15056, V600E); experiment: Erianin-conjugated Sepharose 4B bead pull-down assay; assay type: binding; conditions: in vitro and ex vivo (A375 cell lysate)
T1 construct: endogenous in cells; host or cells: A375
Description: Cell lysate (500 μg) or recombinant proteins (200 ng) were incubated with erianin-CNBr activated sepharose 4B overnight at 4 °C, and the protein-beads complex was washed four times by the use of rotational incubator to remove non-specific binding. Western blotting was developed to check the pull-down bands.

[2] = target: active GST-MEK1 full length (Homo sapiens, UniProt Q02750); experiment: In vitro kinase assay (western blotting); assay type: biochemical; conditions: 12.5 to 50 nM, dose-dependent
Description: (§5) After incubated with 100–400 μM ATP in kinase assay buffer for 30 min, the phosphorylation of the substrate/total substrate protein was detected by western blotting. For ADP-glo kinase assay, unconsumed ATP was depleted with the addition of ADP-Glo™. Followed by kinase detection reagent to convert ADP to ATP, consumption of ATP was detected to evaluate the kinase activity. For more details, refer to the manufacturer’s instructions of ADP-Glo™ Kinase Assay.

[3] = target: active GST-MEK2 full length (Homo sapiens, UniProt P36507); experiment: In vitro kinase assay (western blotting); assay type: biochemical; conditions: 12.5 to 50 nM, dose-dependent
Description: as §5

active CRAF (306-end) = target: T2, active CRAF (306-end) (Homo sapiens, UniProt P04049, Y340E/Y341E); experiment: In vitro kinase assay (western blotting); assay type: biochemical; conditions: 12.5 to 50 nM, dose-dependent
T2 construct: purchased Signal Chem R01-13G
Description: as §5

MEK2 full length = MEK2 full length (Homo sapiens, UniProt P36507); experiment: SPR; assay type: binding; conditions: CM5 chip, Biacore T200, read-out: equilibrium dissociation constant (KD)
Description: (§6) 293 T cells were transfected with plasmids of pcDNA3.1-3×Flag-C-MAP2K1/MAP2K1 (K97A, M146A), MAP2K2/MAP2K1 (K101A, M150A), or CRAF/CRAF (K375A). […]
(§7) After incubation, a series concentration of erianin (RAF inhibitor LY3009120 and MEK inhibitor cobimetinib were simultaneously added as positive control) flowed through the protein-CM5 system. The binding was tested and analyzed using Biacore T200 instrument.

MEK1 full length = MEK1 full length (Homo sapiens, UniProt Q02750); experiment: SPR; assay type: binding; conditions: CM5 chip, Biacore T200, read-out: equilibrium dissociation constant (KD)
Description: as §6, §7

CRAF (306-end) = target: T3, CRAF (306-end) (Homo sapiens, UniProt P04049); experiment: SPR; assay type: binding; conditions: CM5 chip, Biacore T200, read-out: equilibrium dissociation constant (KD)
T3 construct: purchased
Description: as §6, §7

MEK1 full length, sequence (Q02750 whole entry): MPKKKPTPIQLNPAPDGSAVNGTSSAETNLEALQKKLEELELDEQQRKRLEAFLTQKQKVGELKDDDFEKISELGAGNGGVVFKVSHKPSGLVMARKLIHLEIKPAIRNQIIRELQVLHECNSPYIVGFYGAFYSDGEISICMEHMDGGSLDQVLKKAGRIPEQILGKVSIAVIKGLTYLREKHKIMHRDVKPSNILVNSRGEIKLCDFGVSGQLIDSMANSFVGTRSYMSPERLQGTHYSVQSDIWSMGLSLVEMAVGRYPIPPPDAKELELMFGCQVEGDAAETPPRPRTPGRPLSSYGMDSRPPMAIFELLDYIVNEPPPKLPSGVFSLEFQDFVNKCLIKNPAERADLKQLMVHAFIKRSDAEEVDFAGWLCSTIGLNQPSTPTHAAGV
T1 sequence (P15056 whole entry V600E): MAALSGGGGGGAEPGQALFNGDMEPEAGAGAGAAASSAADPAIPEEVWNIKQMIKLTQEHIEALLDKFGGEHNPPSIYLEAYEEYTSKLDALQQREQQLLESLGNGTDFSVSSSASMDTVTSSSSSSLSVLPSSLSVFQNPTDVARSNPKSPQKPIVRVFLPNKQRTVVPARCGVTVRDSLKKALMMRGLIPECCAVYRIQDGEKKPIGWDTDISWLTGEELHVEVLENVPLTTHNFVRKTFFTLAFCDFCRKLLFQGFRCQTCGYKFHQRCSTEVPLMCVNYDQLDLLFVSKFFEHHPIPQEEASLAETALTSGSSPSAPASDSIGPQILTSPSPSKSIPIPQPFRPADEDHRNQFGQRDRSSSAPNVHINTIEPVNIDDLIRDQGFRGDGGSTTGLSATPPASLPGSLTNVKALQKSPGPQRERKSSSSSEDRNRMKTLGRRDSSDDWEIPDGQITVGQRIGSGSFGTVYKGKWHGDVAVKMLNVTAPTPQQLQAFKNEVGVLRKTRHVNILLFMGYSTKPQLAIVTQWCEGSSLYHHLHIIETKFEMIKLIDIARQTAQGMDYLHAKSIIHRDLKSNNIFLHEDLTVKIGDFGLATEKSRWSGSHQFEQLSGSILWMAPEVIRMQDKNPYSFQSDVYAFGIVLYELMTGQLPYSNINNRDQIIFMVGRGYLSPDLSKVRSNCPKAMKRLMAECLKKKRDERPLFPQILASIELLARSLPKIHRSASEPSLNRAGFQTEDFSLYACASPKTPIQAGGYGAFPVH
active GST-MEK2 full length, sequence (P36507 whole entry): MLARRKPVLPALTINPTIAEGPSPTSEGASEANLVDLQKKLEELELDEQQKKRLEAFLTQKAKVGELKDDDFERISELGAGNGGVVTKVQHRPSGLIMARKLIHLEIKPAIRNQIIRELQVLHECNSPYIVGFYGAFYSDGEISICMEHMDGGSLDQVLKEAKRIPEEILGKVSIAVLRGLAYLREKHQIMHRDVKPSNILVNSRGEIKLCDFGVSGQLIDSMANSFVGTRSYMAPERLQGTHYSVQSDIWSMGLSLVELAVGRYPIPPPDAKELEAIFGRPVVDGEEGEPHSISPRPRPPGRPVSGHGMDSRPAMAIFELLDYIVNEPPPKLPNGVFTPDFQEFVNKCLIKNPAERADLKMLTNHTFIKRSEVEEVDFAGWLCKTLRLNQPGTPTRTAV
MEK2 full length, sequence (P36507 whole entry): as above
active GST-MEK1 full length, sequence (Q02750 whole entry): as the sequence (Q02750 whole entry) above

Q: How did the IC50 (SK-MEL-2 (NRAS mut)) turn out when COc1ccc(CCc2cc(OC)c(OC)c(OC)c2)cc1O [Erianin] was run?
A: Its IC50 is 59.7 ± 7.2 nM.

Q: And the IC50 (SK-MEL-28 (BRAF V600E))?
A: Its IC50 is 50.6 ± 1.7 nM.

Q: What about the body weight (A375 (BRAF V600E) CDX) of the same compound?
A: Its body weight is “no significant reduction”.

Q: What about the tumor volume (A375 (BRAF V600E) CDX; vs vehicle-treated group) of the same compound?
A: The tumor volume was “significant decrease”.

Q: And the body weight [1]?
A: The body weight was “no significant reduction”.

Q: And the tumor volume ([1]; vs vehicle-treated group)?
A: Its tumor volume is “significant decrease”.

Q: What about the binding in pull-down (BRAF) of the same compound?
A: The binding in pull-down was “directly bound”.

Q: What about the “MEK1 kinase activity (phosphorylation of ERK1)” value [2] of the same compound?
A: Its value is “inhibited”.

Q: And the “MEK2 kinase activity (phosphorylation of ERK2)” value [3]?
A: Its value is “inhibited”.

Q: What about the “CRAF kinase activity (phosphorylation of MEK1)” value (active CRAF (306-end)) of the same compound?
A: The value was “inhibited”.

Q: And the Kd (MEK2 full length)?
A: The Kd was 115 µM.

Q: And the Kd (MEK1 full length)?
A: Its Kd is 68.5 µM.

Q: What about the Kd (CRAF (306-end)) of the same compound?
A: The Kd was 89.6 µM and 89.7 µM.
